Measurements taken from US20090088439A1, “Diazinane Compounds” (priority 2007, published 2009).

Legend:
[1] = biological target: T1, GABABR1a/GABABR2 heterodimer (Homo sapiens, UniProt O75899+Q9UBS5); experiment: GTPγS35 radioligand filtration-binding assay for determination of agonist potency; type: biochemical; settings: membranes of CHO K1 Flp-In cells expressing GABABR1a/GABABR2; compound alone
T1 construct: expressed in transfected cells; membrane preparation
Method: The potency and efficacy of the compounds acting as agonists at the GABAB receptor was also determined in a automated GTPγS^35 radioligand filtration-binding assay.
(§1) The GABAB receptor is a G-protein coupled receptor. Binding of a ligand activates the receptor leading to recruitment of G-protein and a substitution of the G-protein bound GDP to GTP. The G-protein becomes active. The G-protein is inactivated by hydrolysis of GTP to GDP. G-proteins are membrane bound and therefore present in membrane preparations.
(§2) In the GTPγS^35 assay, GTP is not present but instead GTPγS^35 where one of the phosphate groups are substituted to a sulphur group which cannot be hydrolysed. Upon activation of the receptor, radiolabelled GTPγS^35 replaces the GDP. The complex cannot be inactivated and the radiolabelled complex is accumulating. At the end of the assay, the reaction mixture is filtered through a membrane-binding filter. Excess GTPγS^35 is removed by washing and the membrane bound S^35, which correlates to the degree of receptor activation, is measured with a β-Liquid Scintillation Counter.
The human GABABR1a was subcloned into pIRESneo3 (Clontech) using GABABR1a construct as a template (refseqN NM001470). GABABR2 was subcloned into pCDNA5/FRT (Invitrogen) using GABABR2 construct as a template (refseqN NM005458). The Kozak sequence GCCACC was introduced before the start codon in both constructs.
For generation of stable cell lines, CHO K1 Flp-In cells (Invitrogen) were grown in DMEM/F 12 1:1 media supplemented with 10% FBS at 37° C. in a humidified CO2-incubator. The cells were detached with Accutase and 1.5 million cells were seeded into T75 flasks. After 24 h, transfection of the cells were performed with the GABABR2 construct. For generation of cell lines expressing GABABR2, GABABR2 plasmid (1 μg) and pOG44 from Invitrogen (9 μg) were mixed with 30 μl Lipofectamine 2000 in 600 μl OptiMEM for 20 minutes. The cells were exposed to transfection medium for 5 hours and was then replaced with culture medium. After 2 days 0.5 mg/ml Hygromycin were added to culture medium. The cells were cultured for an additional 10 days to establish a stable cell mix expressing GABABR2. For generation of a cell line expressing the GABABR1a/GABABR2 heterodimer, GABABR1a plasmid DNA (8 μg) and Lipofectamine (30 μl) were mixed in 600 μl OptiMEM and incubated for 20 minutes before added to CHO-Flp-In cells expressing GABABR2. After 2 days additional selection agent was added (0.8 mg/ml Geneticin). The cells were cultured for another 10 days to generate a stable mixed population expressing the GABABR1a/GABABR2 heterodimer. The cell line was analyzed by GTPγS^35 assay with GABA as agonist.
GTPγS^35 radioligand filtration-binding assays were performed using an automated workstation at 30° C. for 1 hour in assay buffer (50 mM HEPES, 40 mM NaCl, 1 mM MgCl2×6H2O, 30 μg/mL Saponin, pH 7.4 at RT) containing 0.025 μg/μL of membrane protein (prepared from the cell line described above), 10 μM GDP and 0.55 nCi/μL GTPγS^35 in a final volume of 60 μL. The reaction was started by the addition of compounds (GABA was always included as a positive control), start concentration 100 μM dilution factor 3. The reaction was terminated and membranes collected by addition of ice-cold wash buffer (50 mM Tris-HCl, 5 mM MgCl2×6H2O, 50 mM NaCl, pH 7.4 at 4° C.) followed by rapid filtration under vacuum through a MultiScreen HTS 384 FB filter plate. Repeated washing of the filters with ice-cold wash buffer washed the unbound radioligand away. The filter plates were dried for 1½-2 hours at 50° C., then 8 μL scintillation liquid was added per well followed by incubation at RT for at least 20 minutes before bound radioactivity was determined using a β-Liquid Scintillation Counter (1450 Microbeta Trilux, Wallac, Finland)
100% activation (max) is calculated as the mean value for wells containing 1 mM GABA. […]

[2] = biological target: T2, GABAB(1A,2) receptor heterodimer (Homo sapiens, UniProt O75899+Q9UBS5); experiment: GTPγS35 radioligand filtration-binding assay for determination of PAM potency; type: biochemical; settings: membranes of CHO-K1 cells expressing GABABR1a/GABABR2; concentration required to reduce GABA's EC50 by 50%; PAM at 10, 1, 0.1 and 0.01 μM; read-out: Mean (EC50 derived) PAM EC50
T2 construct: expressed in transfected cells; membrane preparation
T2 sequence (Q9UBS5 15-961 limits assumed): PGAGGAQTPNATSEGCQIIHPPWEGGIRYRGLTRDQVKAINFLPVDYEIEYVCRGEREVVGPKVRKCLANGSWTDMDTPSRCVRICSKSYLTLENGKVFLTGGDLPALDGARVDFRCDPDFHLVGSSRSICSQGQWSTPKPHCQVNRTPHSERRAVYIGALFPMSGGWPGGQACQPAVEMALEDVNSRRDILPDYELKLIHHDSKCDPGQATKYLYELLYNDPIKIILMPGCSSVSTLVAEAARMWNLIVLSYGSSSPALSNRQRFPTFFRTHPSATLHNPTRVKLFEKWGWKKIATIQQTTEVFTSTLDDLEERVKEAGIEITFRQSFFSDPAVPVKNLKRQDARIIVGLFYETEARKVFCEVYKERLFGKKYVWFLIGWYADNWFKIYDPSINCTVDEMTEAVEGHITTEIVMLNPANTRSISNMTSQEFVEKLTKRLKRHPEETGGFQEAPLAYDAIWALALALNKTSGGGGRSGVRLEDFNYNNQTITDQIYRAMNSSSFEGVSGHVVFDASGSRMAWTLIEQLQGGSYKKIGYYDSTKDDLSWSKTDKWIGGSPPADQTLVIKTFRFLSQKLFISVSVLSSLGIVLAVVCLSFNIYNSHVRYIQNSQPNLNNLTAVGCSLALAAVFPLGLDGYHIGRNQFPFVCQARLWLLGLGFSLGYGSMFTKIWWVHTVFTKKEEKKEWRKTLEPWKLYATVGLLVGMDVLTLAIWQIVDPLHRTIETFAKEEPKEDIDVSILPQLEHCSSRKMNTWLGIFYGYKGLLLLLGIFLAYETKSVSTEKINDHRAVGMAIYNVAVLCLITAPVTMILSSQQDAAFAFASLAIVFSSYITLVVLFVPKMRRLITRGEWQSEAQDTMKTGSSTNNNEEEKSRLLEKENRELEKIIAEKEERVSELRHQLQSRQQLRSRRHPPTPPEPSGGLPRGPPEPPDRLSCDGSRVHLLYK
T2 sequence (O75899 42-941): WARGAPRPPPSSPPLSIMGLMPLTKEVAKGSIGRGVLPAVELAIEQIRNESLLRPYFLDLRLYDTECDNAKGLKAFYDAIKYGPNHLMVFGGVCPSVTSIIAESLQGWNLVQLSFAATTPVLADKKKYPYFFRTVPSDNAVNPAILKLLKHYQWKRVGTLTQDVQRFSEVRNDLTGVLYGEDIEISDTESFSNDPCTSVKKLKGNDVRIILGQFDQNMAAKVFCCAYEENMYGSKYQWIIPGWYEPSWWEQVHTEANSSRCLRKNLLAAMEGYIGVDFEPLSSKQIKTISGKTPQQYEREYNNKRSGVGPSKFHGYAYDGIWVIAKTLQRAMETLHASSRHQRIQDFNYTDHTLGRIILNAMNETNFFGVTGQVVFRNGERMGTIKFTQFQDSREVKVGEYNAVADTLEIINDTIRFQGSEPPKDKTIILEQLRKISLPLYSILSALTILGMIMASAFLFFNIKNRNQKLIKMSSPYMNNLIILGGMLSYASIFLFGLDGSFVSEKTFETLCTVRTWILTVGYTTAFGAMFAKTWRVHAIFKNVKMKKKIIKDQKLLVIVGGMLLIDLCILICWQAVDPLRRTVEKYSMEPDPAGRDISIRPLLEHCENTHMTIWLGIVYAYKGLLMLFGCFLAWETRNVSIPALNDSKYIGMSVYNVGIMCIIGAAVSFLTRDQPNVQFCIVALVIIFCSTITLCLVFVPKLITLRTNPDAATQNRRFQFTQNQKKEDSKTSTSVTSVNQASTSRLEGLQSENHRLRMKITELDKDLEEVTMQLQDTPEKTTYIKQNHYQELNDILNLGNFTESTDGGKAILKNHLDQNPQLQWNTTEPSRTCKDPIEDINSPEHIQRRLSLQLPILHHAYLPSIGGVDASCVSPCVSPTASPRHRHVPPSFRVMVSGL
Description: The effect of GABA in an automated GTPγS^35 radioligand filtration-binding assay in CHO cells expressing the GABAB(1A,2) receptor heterodimer was studied in the presence or absence of the positive allosteric modulator test compounds. […]
as §1, §2
GABABR1a and GABABR2 were cloned from human brain cDNA and subcloned into pCI-Neo (Promega) and pALTER-1 (Promega), respectively.
In order to optimise the Kozak consensus sequence of GABABR2, in situ mutagenesis was performed using the Altered Sites Mutagenesis kit according to manufacturer's instruction (Promega) with the following primer,
5′-[…]-3′. The optimised GABABR2 was then restricted from pALTER-1 with Xho I+Kpn I and subcloned into the mammalian expression vector pcDNA3.1(−)/Zeo (Invitrogen) to produce the final construct, pcDNA3.1(−)/Zeo-GABABR2.
For generation of stable cell lines, CHO-K1 cells were grown in Nut mix F-12 (Ham) media supplemented with 10% FBS, 100 U/ml Penicillin and 100 μg/ml Streptomycin at 37° C. in a humidified CO2-incubator. The cells were detached with 1 mM EDTA in PBS and 1 million cells were seeded in 100 mm petri dishes. After 24 hours the culture media was replaced with OptiMEM and incubated for 1 hour in a CO2-incubator.
For generation of a cell line expressing the GABABR1a/GABABR2 heterodimer, GABABR1a plasmid DNA (4 μg) GABABR2 plasmid DNA (4 μg) and lipofectamine (24 μl) were mixed in 5 ml OptiMEM and incubated for 45 minutes at room temperature. The cells were exposed to the transfection medium for 5 hours, which then was replaced with culture medium. The cells were cultured for an additional 10 days before selection agents (300 μg/ml hygromycin and 400 μg/ml geneticin) were added. Twenty-four days after transfection, single cell sorting into 96-well plates by flow cytometry was performed using a FACS Vantage SE (Becton Dickinson, Palo Alto, Calif.). After expansion, the GABAB receptor functional response was tested by measuring the GABAB receptor dependent release of intracellular calcium in a fluorescence imaging plate reader (FLIPR). The clone with the highest functional response was collected, expanded and then subcloned by single cell sorting. The clonal cell line with the highest peak response in the FLIPR was used in the present study.
GTPγS^35 radioligand filtration-binding assays were performed using an automated workstation at 30° C. for 1 hour in assay buffer (50 mM HEPES, 40 mM NaCl, 1 mM MgCl2×6H2O, 30 μg/mL Saponin, pH 7.4 at RT) containing 0.025 μg/μL of membrane protein (prepared from the cell line described above), 10 μM GDP and 0.55 nCi/μL GTPγS^35 in a final volume of 60 μL. The reaction was started by the addition of serially diluted GABA (final start concentration 1 mM dilution factor 3) in the presence or absence of four concentrations (final conc 10, 1, 0.1 and 0.01 μM) of PAM. The reaction was terminated and membranes collected by addition of ice-cold wash buffer (50 mM Tris-HCl, 5 mM MgCl2×6H2O, 50 mM NaCl, pH 7.4 at 4° C.) followed by rapid filtration under vacuum through a MultiScreen HTS 384 FB filter plate. […]

T1 sequence (Q9UBS5 15-961 limits assumed): as the sequence (Q9UBS5 15-961 limits assumed) above
T1 sequence (O75899 42-941): as the sequence (O75899 42-941) above

EC50 [1] [µM]	EC50 [2] [nM]	SMILES
36.8	1300	CCCn1c(=O)n(Cc2ccc(Cl)cc2)c(=O)c2nc(C)c(C)nc21 [Example 15, 3-(4-chlorobenzyl)-6,7-dimethyl-1-propylpteridine-2,4(1H,3H)-dione]
4.7	800	CC(C)(C)CCn1c(=O)n(Cc2ccc(Cl)cc2)c(=O)c2nccnc21 [Example 6, 3-(4-chlorobenzyl)-1-(3,3-dimethylbutyl)pteridine-2,4(1H,3H)-dione]
0.8	800	CCCn1c(=O)n(Cc2ccc(Cl)cc2)c(=O)c2nc3c(nc21)CCCC3 [Example 20, 3-(4-chlorobenzyl)-1-propyl-6,7,8,9-tetrahydrobenzo[g]pteridine-2,4(1H,3H)-dione]
